# Columns and labels:
# in vitro [1] = conditions: human, plasma
# in vitro [2] = conditions: SD, HW or BN, rat, plasma
# in vitro [3] = conditions: mouse, plasma
# in vitro [4] = conditions: Dunkin Hartley, guinea pig, plasma
# physchem [5] = conditions: octan-1-ol/water, pH 7.4, LogD7.4
# in vitro [6] = conditions: Beagle, dog, plasma
# in vitro [7] = conditions: human, hepatocytes
# physchem [8] = assay: physchem
# physchem [9] = conditions: pH 7.4 buffer
# in vitro [10] = conditions: human
# in vitro [11] = conditions: hepatocytes
# physchem [12] = assay: physchem; remark: listed apart in the source
# physchem [13] = assay: physchem; remark: listed apart in the source
compound,measurement,setting,value
c1ccc([C@@H]([C@H](c2ccccc2)N2CCCC2)N2CCCC2)cc1,fraction unbound at 5 h,in vitro [1]; PPB,0.17
same,fraction unbound at 5 h,in vitro [2],0.329
same,fraction unbound at 5 h,in vitro [3],0.339
same,fraction unbound at 5 h,in vitro [4],0.489
COc1ccc2c(C)cc(N[C@H]3CC[C@H](NCc4cn(C)c5cccnc45)C3)nc2c1,fraction unbound at 5 h,in vitro [1]; PPB,0.0262
same,fraction unbound at 5 h,in vitro [3],0.0647
same,fraction unbound at 5 h,in vitro [4],0.0854
NC(=O)[C@@H](CCC(F)(F)F)N(Cc1ccc(-c2ncon2)cc1F)S(=O)(=O)c1ccc(Cl)cc1,fraction unbound at 5 h,in vitro [2],0.0119
same,fraction unbound at 5 h,in vitro [3],0.0149
same,fraction unbound at 5 h,in vitro [4],0.0081
CN(C)N(C)C(=O)[C@@]1(Cc2ccccc2)CCCN(C(=O)[C@@H](Cc2c[nH]c3ccccc23)NC(=O)C(C)(C)N)C1 [ANAMORELIN],logD,physchem [5],2.1
same,fraction unbound at 5 h,in vitro [2],0.16
same,fraction unbound at 5 h,in vitro [6],0.0633
same,fraction unbound at 5 h,in vitro [4],0.22
same,hepatocyte CLint,in vitro [7],8.91 µL/min/1e6 cells
Cc1nc2ccc(Oc3ccc(F)cc3)cc2c(=O)n1C[C@H]1CCCN(C(C)C)C1,logD,physchem [5],2.4
same,pKa,physchem [8],2.65
O=C(N[C@@H]1COc2cccc(-c3ccc(CO)nc3)c2C1)c1ccc(OCC(F)(F)F)nc1,fraction unbound at 5 h,in vitro [1]; PPB,0.0374
same,fraction unbound at 5 h,in vitro [2],0.0752
same,fraction unbound at 5 h,in vitro [6],0.0477
same,fraction unbound at 5 h,in vitro [4],0.11
C[C@H](CN(C(=O)c1ccc(C#N)cc1)c1ccccn1)N1CCN(c2cccc3c2OCCO3)CC1 [LECOZOTAN],fraction unbound at 5 h,in vitro [1]; PPB,0.009
same,fraction unbound at 5 h,in vitro [2],0.179
same,fraction unbound at 5 h,in vitro [3],0.139
same,fraction unbound at 5 h,in vitro [4],0.139
CCN(Cc1cc(C(F)(F)F)ccc1-c1cc(CC(=O)O)ccc1OC)C(=O)NCc1ccccc1 [AM-211],solubility thermodynamic,physchem [9],1380 µM
same,fraction unbound at 5 h,in vitro [1]; PPB,0.0171
same,fraction unbound at 5 h,in vitro [2],0.0191
same,fraction unbound at 5 h,in vitro [6],0.0039
same,fraction unbound at 5 h,in vitro [4],0.0256
same,microsomal CLint,in vitro [10]; microsomes,67.6 µL/min/mg
same,hepatocyte CLint,in vitro [11],18.2 µL/min/1e6 cells
O=C(CC1CCN(Cc2ccn(-c3ccc(C(F)(F)F)cn3)c2)CC1)NC(c1ccc(F)cc1)c1ccc(F)cc1,fraction unbound at 5 h,in vitro [1]; PPB,0.0053
same,fraction unbound at 5 h,in vitro [2],0.0033
same,fraction unbound at 5 h,in vitro [6],0.004
same,fraction unbound at 5 h,in vitro [4],0.013
COc1ccc(CC(=O)NCc2ccccc2-c2ccccc2C(=O)NCCc2cccnc2)cc1,fraction unbound at 5 h,in vitro [1]; PPB,0.0066
same,fraction unbound at 5 h,in vitro [2],0.0836
same,fraction unbound at 5 h,in vitro [6],0.0705
same,fraction unbound at 5 h,in vitro [3],0.0872
same,fraction unbound at 5 h,in vitro [4],0.17
c1ccc([C@H]([C@@H](c2ccccc2)N2CCCC2)N2CCCC2)cc1,fraction unbound at 5 h,in vitro [1]; PPB,0.17
same,fraction unbound at 5 h,in vitro [2],0.339
same,fraction unbound at 5 h,in vitro [3],0.271
same,fraction unbound at 5 h,in vitro [4],0.489
Cc1nn(-c2ccc(F)cc2)c(NS(=O)(=O)c2ccc(C(F)(F)F)cc2)c1C(=O)N[C@@H](C)C(C)(C)C,logD,physchem [5],2.35
same,fraction unbound at 5 h,in vitro [1]; PPB,0.0136
same,fraction unbound at 5 h,in vitro [2],0.0293
same,fraction unbound at 5 h,in vitro [4],0.0736
same,microsomal CLint,in vitro [10]; microsomes,10 µL/min/mg
same,hepatocyte CLint,in vitro [11],5.01 µL/min/1e6 cells
same,pKa,physchem [12],3.4
Cc1nn(-c2ccccc2)c(N)c1-c1ccccc1,fraction unbound at 5 h,in vitro [1],0.013
same,fraction unbound at 5 h,in vitro [2],0.0457
same,fraction unbound at 5 h,in vitro [6],0.0313
same,fraction unbound at 5 h,in vitro [4],0.0328
same,hepatocyte CLint,in vitro [7],32.4 µL/min/1e6 cells
OC(Cn1cncn1)(Cn1cncn1)c1ccc(F)cc1F [FLUCONAZOLE],pKa,physchem [13],2.72
same,fraction unbound at 5 h,in vitro [1],0.858
same,pKa,physchem [8],2.18
NC(=O)N1c2ccccc2C=Cc2ccccc21 [CARBAMAZEPINE],logD,physchem [5],1.65
same,solubility thermodynamic,physchem [9],776 µM
same,fraction unbound at 5 h,in vitro [1]; PPB,0.294
same,fraction unbound at 5 h,in vitro [2],0.266
same,fraction unbound at 5 h,in vitro [6],0.271
same,fraction unbound at 5 h,in vitro [4],0.24
same,microsomal CLint,in vitro [10]; microsomes,7 µL/min/mg
same,hepatocyte CLint,in vitro [11],19.9 µL/min/1e6 cells
same,hepatocyte CLint,in vitro [7],5.25 µL/min/1e6 cells
CNC(=O)CCCN(C)C(=O)c1ccc2c(c1)c1c(n2C)CC[C@@H](C2CCOCC2)C1,fraction unbound at 5 h,in vitro [1],0.0366
same,fraction unbound at 5 h,in vitro [2],0.0146
same,fraction unbound at 5 h,in vitro [6],0.258
same,fraction unbound at 5 h,in vitro [4],0.329
Cc1ccc(S(=O)(=O)Nc2c(C(=O)N[C@@H](C)C(C)(C)C)c(C)nn2C(C)C)cc1,fraction unbound at 5 h,in vitro [1]; PPB,0.0457
same,fraction unbound at 5 h,in vitro [2],0.0418
same,fraction unbound at 5 h,in vitro [6],0.0736
same,fraction unbound at 5 h,in vitro [4],0.271
same,hepatocyte CLint,in vitro [11],10 µL/min/1e6 cells
same,hepatocyte CLint,in vitro [7],< 3 µL/min/1e6 cells
same,pKa,physchem [12],4.5
N=C(N)SCCc1cccc(CCSC(=N)N)c1,pKa,physchem [13],11
same,pKa,physchem [8],9.1
O=P(c1ccccc1)(c1ccccc1)N(Cc1ccccn1)c1cccnc1,fraction unbound at 5 h,in vitro [1],0.0234
same,fraction unbound at 5 h,in vitro [2],0.145
same,fraction unbound at 5 h,in vitro [6],0.208
same,fraction unbound at 5 h,in vitro [3],0.17
same,fraction unbound at 5 h,in vitro [4],0.299
c1ccc([C@H]([C@@H](c2ccccc2)N2CCCCC2)N2CCCCC2)cc1,fraction unbound at 5 h,in vitro [1]; PPB,0.0606
same,fraction unbound at 5 h,in vitro [2],0.365
same,fraction unbound at 5 h,in vitro [6],0.163
same,fraction unbound at 5 h,in vitro [3],0.253
same,fraction unbound at 5 h,in vitro [4],0.5
same,microsomal CLint,in vitro [10]; liver microsomes,13.8 µL/min/mg
same,hepatocyte CLint,in vitro [11],12 µL/min/1e6 cells
CCCN(c1cccnc1)P(=O)(c1ccccc1)c1ccccc1,fraction unbound at 5 h,in vitro [1],0.0205
same,fraction unbound at 5 h,in vitro [2],0.151
same,fraction unbound at 5 h,in vitro [6],0.176
same,fraction unbound at 5 h,in vitro [3],0.124
same,fraction unbound at 5 h,in vitro [4],0.309
CN(C)CCC(c1ccc(Cl)cc1)c1ccccn1 (stereo unspecified) [CHLORPHENIRAMINE],pKa,physchem [8],5.86
COc1ccc(CCO[C@@H]2CCCC[C@H]2N2CC[C@@H](O)C2)cc1OC [VERNAKALANT],fraction unbound at 5 h,in vitro [1]; PPB,0.629
same,fraction unbound at 5 h,in vitro [2],0.776
same,fraction unbound at 5 h,in vitro [6],0.772
same,fraction unbound at 5 h,in vitro [4],0.309
same,hepatocyte CLint,in vitro [7],6.46 µL/min/1e6 cells
N#Cc1cc(F)c(Cl)cc1O[C@H](CCN)c1ccccc1,pKa,physchem [13],9.6
same,logD,physchem [5],0.77
same,fraction unbound at 5 h,in vitro [1]; PPB,0.289
same,fraction unbound at 5 h,in vitro [6],0.0457
same,fraction unbound at 5 h,in vitro [4],0.101
same,microsomal CLint,in vitro [10]; liver microsomes,< 3 µL/min/mg
CCS(=O)(=O)c1ccc(-c2cc(C(F)(F)F)ccc2OCC(=O)O)c(C)c1,logD,physchem [5],-0.45
same,fraction unbound at 5 h,in vitro [1]; PPB,0.0428
same,fraction unbound at 5 h,in vitro [2],0.0705
same,fraction unbound at 5 h,in vitro [6],0.03
same,fraction unbound at 5 h,in vitro [3],0.208
same,fraction unbound at 5 h,in vitro [4],0.0928
same,pKa,physchem [12],3.2
O=C(O)C(c1ccccc1)N1CCC(N2CCC(Oc3ccc(Cl)c(Cl)c3)CC2)CC1 (stereo unspecified),pKa,physchem [13],9.1
same,logD,physchem [5],2.23
same,microsomal CLint,in vitro [10]; liver microsomes,6 µL/min/mg
same,pKa,physchem [8],6.5
Cc1nnc(C(C)C)n1[C@H]1C[C@H]2CC[C@@H](C1)N2CC[C@H](NC(=O)C1CCC(F)(F)CC1)c1ccccc1 [MARAVIROC],pKa,physchem [13],9.66
same,pKa,physchem [8],2.4
C#CCn1c(=O)c2c(-c3cncn3C)n(Cc3ccnc4ccc(Cl)cc34)nc2n(CC2CC2)c1=O,pKa,physchem [8],4.44
CC#Cc1cncc(-c2ccc3c(c2)C2(N=C(C)C(N)=N2)[C@]2(CC[C@H](OC)CC2)C3)c1 (stereo partly specified),fraction unbound at 5 h,in vitro [1]; PPB,0.0801
same,fraction unbound at 5 h,in vitro [3],0.0041
same,fraction unbound at 5 h,in vitro [4],0.072
N#Cc1ccc2ccc(=O)n(CCN3CC[C@@H](NCc4ccc5c(n4)NC(=O)CO5)[C@@H](F)C3)c2c1,logD,physchem [5],0.66
same,fraction unbound at 5 h,in vitro [1]; PPB,0.204
same,fraction unbound at 5 h,in vitro [2],0.285
same,fraction unbound at 5 h,in vitro [6],0.591
same,fraction unbound at 5 h,in vitro [3],0.465
same,fraction unbound at 5 h,in vitro [4],0.715
same,hepatocyte CLint,in vitro [11],16.6 µL/min/1e6 cells
CC1=NC(c2cccc(-c3cncc(Cl)c3)c2)(C2CC2)N=C1N (stereo unspecified),pKa,physchem [13],6.04
same,pKa,physchem [8],2.28
O=P(c1ccccc1)(c1ccccc1)N(Cc1ccccn1)Cc1ccccn1,fraction unbound at 5 h,in vitro [1],0.0049
same,fraction unbound at 5 h,in vitro [3],0.0968
same,fraction unbound at 5 h,in vitro [4],0.569
OCc1cc(C(O)CNCCCCCCOCCCCc2ccccc2)ccc1O (stereo unspecified) [SALMETEROL],fraction unbound at 5 h,in vitro [1]; PPB,0.0661
same,fraction unbound at 5 h,in vitro [2],0.0736
same,fraction unbound at 5 h,in vitro [6],0.0179
same,fraction unbound at 5 h,in vitro [4],0.0477
same,microsomal CLint,in vitro [10]; liver microsomes,58 µL/min/mg
same,hepatocyte CLint,in vitro [11],85 µL/min/1e6 cells

# From ChEMBL document CHEMBL3301361, “Experimental in vitro DMPK and physicochemical data on a set of publicly disclosed compounds”
